These results are taken from ChEMBL document CHEMBL1201862, “PubChem BioAssay data set” (2004).

What all share (assay): NCI anticancer screen, dose series, 48 h
For experiment [1], the system named is A549.
In experiment [2] the test system is Malme-3M.
In experiment [3] the test system is OVCAR-5.
Experiment [4] relates to IGROV-1.
Experiment [5] deals with DMS-114.
For experiment [6], the system named is HCT-116.
Experiment [7] relates to TK-10.
Experiment [8] concerns NCI-H23.
In experiment [9] the test system is K562.
Experiment [10] deals with MOLT-4.
In experiment [11] the test system is SN12C.
Experiment [12] deals with ACHN.
Experiment [13] relates to COLO 205.
Experiment [14] relates to CCRF-CEM.
Experiment [15] deals with UO-31.
In experiment [16] the test system is SF-539.
In experiment [17] the test system is BT-549.
For experiment [18], the system named is Hs-578T.
For experiment [19], the system named is NCI/ADR-RES.
Experiment [20] concerns PC-3.

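Five compound concentrations were applied to cells in 96-well plates for 48 hours; endpoints were derived by simple linear interpolation of the resulting dose-response curve. GI50 marks 50% less growth.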 The source made the active and inactive calls. No stated cut-off is given here; in the data, active = GI50 up to about 1.1 µM and inactive = higher. A value given as a limit tells only on which side of the number the result lay.

With `CC1(C)NC(=O)N(CCCCCCN2C(=O)NC(C)(C)C2=O)C1=O`, the GI50 in [1], in [2], in experiment [3], in experiment [4], in experiment [5] and in [6] was > 100 µM (inactive) in each case. Also, the GI50 in experiment [7], in [8], in experiment [9], in experiment [10], in experiment [11] and in [12] was > 100 µM (inactive) throughout. The GI50 in experiment [13], in [14] and in experiment [15] was > 100 µM (inactive) in each case.

On to `Brc1ccc(-c2nnc(-c3nn(-c4ccccc4)c4nc5ccccc5nc34)o2)cc1`, for which the GI50 is 96.4 µM (inactive) in [1]; 68.9 µM (inactive) in experiment [3]; > 100 µM (inactive) in experiment [4]; 26.7 µM (inactive) in [5]; 27.8 µM (inactive) in [6]; > 100 µM (inactive) in experiment [7]. The GI50 in experiment [8] is > 100 µM (inactive); in experiment [16], > 100 µM (inactive); in [9], 27 µM (inactive); in [10], 33.5 µM (inactive); in experiment [11], > 100 µM (inactive); in experiment [12] it was > 100 µM (inactive). The values for the GI50 in experiment [13], in [14] and in experiment [15] were > 100 µM (inactive), 26.1 µM (inactive) and > 100 µM (inactive), respectively.

In the case of `Clc1ccc2c(c1)C1C(CO2)C(c2ccccc2)=NN1c1ccccc1` (configuration not stated), the GI50 is 32.7 µM (inactive) in experiment [1]; 43 µM (inactive) in [2]; > 100 µM (inactive) in experiment [3]; 22.9 µM (inactive) in [4]; 24.6 µM (inactive) in [5]; 16.1 µM (inactive) in experiment [6]. Also, the GI50 is 82.8 µM (inactive) in [7]; 33.7 µM (inactive) in experiment [8]; 26.2 µM (inactive) in experiment [9]; 22 µM (inactive) in experiment [10]; 35.2 µM (inactive) in [12]; 71.3 µM (inactive) in experiment [13]. Besides, the GI50 in [14] is 24.9 µM (inactive); in experiment [15], 15 µM (inactive).

For `CNC(=S)/C(C#N)=C(\N)N1CCN(C)CC1`, the GI50 in [1], in [17], in experiment [2], in [3], in experiment [4] and in experiment [18] was > 100 µM (inactive) each time. Further, the GI50 in experiment [6], in experiment [7], in experiment [8], in experiment [16], in experiment [19] and in [9] was > 100 µM (inactive) each time. In addition, the GI50 in experiment [10], in [11], in experiment [12], in experiment [13], in experiment [20] and in experiment [14] was > 100 µM (inactive) in each case. In addition, the GI50 in experiment [15] was > 100 µM (inactive).

On to `CC(=O)Nc1ccc2c3c(cc(O)c2c1)N(C(=O)CCCCC(=O)N1CC(CCl)c2c1cc(O)c1cc(NC(C)=O)ccc21)CC3CCl` (configuration not stated), for which the GI50 is 0.147 µM (active) in experiment [1]; 0.183 µM (active) in experiment [17]; 0.149 µM (active) in [2]; 1.37 µM (inactive) in experiment [3]; 0.352 µM (active) in [4]; 0.423 µM (active) in [18]. For the same compound, the GI50 is 0.125 µM (active) in experiment [6]; 2.19 µM (inactive) in experiment [7]; < 0.0161 µM (active) in experiment [8]; 0.0527 µM (active) in experiment [16]; 21.3 µM (inactive) in [19]; 0.284 µM (active) in [9]. In addition, the GI50 in experiment [10] was < 0.01 µM (active); in [11], 0.154 µM (active); in [12], 0.0308 µM (active); in experiment [13], 0.102 µM (active); in [20], 0.526 µM (active); in experiment [14] it was < 0.01 µM (active). In addition, the GI50 in [15] is 3.53 µM (inactive).

As to `Cc1cc2cc3c(cc2c(-c2ccc([N+](=O)[O-])cc2)n1)OCO3`, the GI50 in experiment [1] is 25.8 µM (inactive); in [17], 17.2 µM (inactive); in [2] it was 61.1 µM (inactive); in [3] it was > 100 µM (inactive); in experiment [4], 15.5 µM (inactive); in [18], 23.3 µM (inactive). The GI50 was 36.8 µM (inactive) in [6]; 43.9 µM (inactive) in experiment [7]; 45 µM (inactive) in [8]; 22.6 µM (inactive) in experiment [16]; 44.6 µM (inactive) in experiment [19]; 60.8 µM (inactive) in experiment [9]. In addition, the GI50 in [10] was 22.5 µM (inactive); in experiment [11], 28.7 µM (inactive); in experiment [12], 29.9 µM (inactive); in [13], 37.7 µM (inactive); in experiment [20] it was 44.7 µM (inactive); in [14], 31.6 µM (inactive). The GI50 in [15] is 13.5 µM (inactive).

Turning to `Fc1ccc(C2NC(=S)NC3=C2CCOc2c3ccc3ccccc23)cc1` (configuration not stated), the GI50 in [1] is 31.3 µM (inactive); in experiment [17], 58.1 µM (inactive); in [2], 17.4 µM (inactive); in experiment [3] it was 94.6 µM (inactive); in experiment [4], 47.1 µM (inactive); in [18], 42.1 µM (inactive). The GI50 in experiment [6] was 4.85 µM (inactive); in experiment [7] it was 44.9 µM (inactive); in experiment [8], 24.4 µM (inactive); in experiment [16], > 100 µM (inactive); in experiment [19] it was 18.9 µM (inactive); in [9], 3.39 µM (inactive). For the same compound, the GI50 in experiment [10] was 19.9 µM (inactive); in experiment [11], 94.8 µM (inactive); in experiment [12], 58.7 µM (inactive); in experiment [13], 6.67 µM (inactive); in [20] it was 50.8 µM (inactive); in [14], 54 µM (inactive). In [15], the GI50 is 26.7 µM (inactive).

Regarding `CSc1nc(C)cc(=O)n1C1OC(COC(C)=O)C(OC(C)=O)C(OC(C)=O)C1OC(C)=O` (configuration not stated), the GI50 in [1], in [2], in experiment [3], in experiment [4], in experiment [5] and in [6] was > 100 µM (inactive) throughout. Also, the GI50 in experiment [7], in experiment [8], in experiment [9], in experiment [10], in [11] and in experiment [12] was > 100 µM (inactive) throughout. In addition, the GI50 in experiment [13], in [14] and in experiment [15] was > 100 µM (inactive) in each case.

With `CN(C)CC/C=C1\c2ccccc2Sc2ccc(Cl)cc21`, the GI50 in experiment [1] was 14.6 µM (inactive); in experiment [17], 15.2 µM (inactive); in [2] it was 12.8 µM (inactive); in experiment [3], 13.9 µM (inactive); in [4] it was 11.9 µM (inactive); in [18], 14.4 µM (inactive). Also, the GI50 in experiment [6] is 11.6 µM (inactive); in experiment [7], 14.5 µM (inactive); in [8], 15.6 µM (inactive); in experiment [16] it was 19 µM (inactive); in experiment [19] it was 13.8 µM (inactive); in experiment [9], 5.16 µM (inactive). The GI50 in [10] was 11.5 µM (inactive); in experiment [11], 15.2 µM (inactive); in experiment [12] it was 15.8 µM (inactive); in experiment [13] it was 14.2 µM (inactive); in experiment [20] it was 12.8 µM (inactive); in experiment [14], 8.2 µM (inactive). Besides, the GI50 in experiment [15] is 9.4 µM (inactive).

For `O=C1CSC(c2cccs2)N1c1nc2cc3sc(N4C(=O)CSC4c4cccs4)nc3cc2s1` (configuration not stated), the GI50 in experiment [1] is 4.23 µM (inactive); in experiment [17], > 50 µM (inactive); in [2], > 50 µM (inactive); in [3], > 50 µM (inactive); in experiment [4], 32.3 µM (inactive); in [18] it was > 50 µM (inactive). Besides, the GI50 in [6] is 38.4 µM (inactive); in experiment [7], > 50 µM (inactive); in [8], 28.8 µM (inactive); in experiment [16], 0.753 µM (active); in experiment [19] it was 43.1 µM (inactive); in experiment [9], 34.5 µM (inactive). Also, the GI50 in [10] is 6.4 µM (inactive); in experiment [11], 26.4 µM (inactive); in experiment [12], > 50 µM (inactive); in experiment [13], 1.21 µM (inactive); in [20], 47.9 µM (inactive); in experiment [14], 25.2 µM (inactive). In addition, the GI50 in experiment [15] is 30.9 µM (inactive).

In the case of `Cc1ccc2c(c1C)C(=O)C1(C2)Cc2ccc3c(c2C1=O)CCC3` (configuration not stated), the GI50 in experiment [1], in experiment [17], in [2], in experiment [3], in [4] and in experiment [18] was > 100 µM (inactive) each time. Besides, the GI50 in [6] was > 100 µM (inactive); in [7], > 100 µM (inactive); in experiment [8], > 100 µM (inactive); in experiment [16], 29.9 µM (inactive); in experiment [19], > 100 µM (inactive); in experiment [9], > 100 µM (inactive). Further, the GI50 in experiment [10], in experiment [11], in experiment [12], in experiment [13], in [20] and in experiment [14] was > 100 µM (inactive) in each case. For the same compound, the GI50 in experiment [15] was > 100 µM (inactive).
